Test results reported in patent US11435353B2, “Method of evaluating drug resistance and treatment effect” (priority 2018, dated 2022).
“Also recorded” adds a separate entry of the source. Like-named read-outs stand apart in the source and are kept apart here.

Assays:
cyclin D1 = assay: qRT-PCR and western blot of cyclin D1; type: cell-based; details: MCF-7 cells, 2 μM, 48 hours, FIG. 8A/8B
Method: (§1) Then, the tamoxifen-sensitive cells (MCF-7) were further collected to analyze protein expression by using a western blot.
(§2) Whole cell extracts were lysed in RIPA buffer and collected to fractionate by SDSPAGE, and then transferred onto PVDF membranes according to the manufacture's protocols (Bio-Rad). After blocking with 5% nonfat milk in TBST for 60 min, membranes were washed and incubated with primary antibodies at 4° C. overnight. Membranes were washed three times for 10 min and incubated with secondary antibodies for 60 min. Protein expressions were visualized by ECL system according to the manufacture's protocols.
(§3) Total RNA was isolated by using Trizol reagent according to the manufacturer's instructions. 200 ng of RNA was reverse transcribed to complementary DNA (cDNA) by using a reverse transcriptase enzyme, a random primer, dNTPs and an RNase inhibitor. Real-time PCR was performed by Applied Biosystem Step One Real-time PCR system (Applied Biosystems) according to manufacturer's protocols. Samples run in three independent experiments and GAPDH or α-tubulin were used as an internal control to normalize the target genes.

SOX2 protein [1] = assay: Western blot of SOX2 protein expression; type: cell-based
Method: In order to identify the downstream modulator of TRBP, the tamoxifen-sensitive cells (MCF-7) were treated with 2 μM tamoxifen for 48 hours, and then RNA of the tamoxifen-sensitive cell (MCF-7) was isolated to analyze the mRNA expression of stem cell markers by using a reverse-transcription PCR (qRT-PCR), with the aforementioned experiment being repeated at least three times, and with ATP5E being used as a positive control for tamoxifen treatment (*P<0.05) by t-test. Then, the tamoxifen-sensitive cells (MCF-7) were further collected to analyze protein expression by using a western blot. Accordingly, we determined the expression of several key factors that have been reported to modulate self-renewal and drug resistance of cancer cells, including SOX2, Nanog, OCT4, Lin28A, CCND1.
(§4) On the other hands, similar experiments above are also performed to identify the upstream modulator of TRBP.
as §2

[2] = tested on: tamoxifen-resistant cell (MCF-7/TR)
Method: (§6) Cell viability was analyzed by MTT (3, [4,5-dimethylthiazol-2-yl-]diphenyltetrazolium bromide, 5 mg/ml). Cells were seeding in 96-well plates and incubated overnight, and then changed into the fresh medium containing indicated concentrations of tamoxifen for 72 h. 50 μl of MTT was added to each well and incubated for 2 h, and the purple formazan crystals were dissolved in DMSO. The absorbance was measured by a microplate reader at a wavelength of 570 nm.

TRBP protein = assay: Cycloheximide chase, TRBP protein stability by western blot; type: cell-based
Method: (§5) Then, in order to investigate changes in TRBP protein stability, the […] of TRBP was analyzed by further treating the tamoxifen-resistant cell (MCF-7/TR) and the tamoxifen-resistant cell (MCF-7/TR1) with 50 μg/ml cycloheximide (CHX) to block de novo protein synthesis, followed by harvesting the tamoxifen-resistant cell (MCF-7/TR) and the tamoxifen-resistant cell (MCF-7/TR1) at an indicated time point to analyze the expression of TRBP in the tamoxifen-resistant cell (MCF-7/TR) and the tamoxifen-resistant cell through another western blot, wherein the degradation rates were plotted for the average±SEM of at least three independent experiments and analyzed by two-way ANOVA (*P≤0.05 and **P≤0.01).
as §2

SOX2 mRNA = assay: qRT-PCR of stem cell marker mRNA (SOX2); type: cell-based; details: MCF-7 cells, 2 μM, 48 hours, FIG. 8A/8F
Method: as §1
After that, RNA was isolated from the tamoxifen-sensitive cell (MCF-7) to analyze the mRNA expression of SOX2 by using a reverse-transcription PCR (qRT-PCR).
as §3

Merlin = assay: Western blot of Merlin expression after tamoxifen treatment; type: cell-based; details: increasing concentrations, 48 hours
Method: as §2

TRBP = assay: Western blot of TRBP expression after tamoxifen or 4OHT treatment; type: cell-based; details: 48 hours
Method: as §4, §2

SOX2 protein [3] = assay: SOX2 protein stability; type: cell-based
[4] = tested on: ER+ breast cancer cell (ZR-75-1)
Method: as §6

TRBP mRNA = assay: qRT-PCR of TRBP mRNA level; type: cell-based; details: FIG. 7A
Method: as §5, §3

p-AKT = assay: Western blot of p-AKT; type: cell-based; details: left of FIG. 8K
Method: as §4, §2

[5] = tested on: ER+ breast cancer cell (ZR-75-1); assay: MTT assay of cytotoxic effects in ZR-75-1 cells; details: short-term treatment, FIG. 5C/5D
Method: as §6

CC/C(=C(\c1ccccc1)c1ccc(OCCN(C)C)cc1)c1ccccc1 [tamoxifen]
cyclin D1 expression (cyclin D1): reduction of cyclin D1
expression of SOX2 protein (SOX2 protein [1]; MCF-7 cells, 2 μM, 48 hours, FIG. 8B): upregulated expression of SOX2 protein
SOX2 level after tamoxifen treatment (SOX2 protein [1]; right of FIG. 8K): elevated-SOX2 level
cytotoxic effects (MTT) [2]: without inducing any significant cytotoxic effects
degradation of TRBP protein (TRBP protein; tamoxifen-treated vs untreated MCF-7, 50 μg/ml cycloheximide, FIG. 7B): significant prolonged degradation of TRBP protein
degradation of TRBP protein (TRBP protein; tamoxifen-treated vs untreated MCF-7/TR1, 50 μg/ml cycloheximide, FIG. 7C): significant prolonged degradation of TRBP protein
expression of SOX2 mRNA (SOX2 mRNA): upregulated; also recorded: enhanced SOX2 expression
expression of Merlin (Merlin; MCF-7 cells, FIG. 7D): suppressed in a dose-dependent manner
expression of Merlin (Merlin; ZR-75-1 cells, FIG. 7E): suppressed in a dose-dependent manner
TRBP expression (TRBP; ER- Hs578T cells, FIG. 5E): no significant induction of TRBP
TRBP expression (TRBP; ER- MDA-MB-231 cells, FIG. 5E): no significant induction of TRBP
TRBP expression (TRBP; ER- SKBR3 cells, FIG. 5E): no significant induction of TRBP
TRBP expression (TRBP; MCF-7/TR cells, increasing concentrations, FIG. 5A/5B): induced the TRBP expression in a dose-dependent manner
SOX2 protein degradation (SOX2 protein [3]; tamoxifen-treated vs untreated MCF-7, FIG. 8G): degraded more slowly
SOX2 protein degradation (SOX2 protein [3]; tamoxifen-treated vs untreated MCF-7/TR, FIG. 8H): degraded more slowly
cytotoxic effects (MTT) [4]: noncytotoxic
TRBP mRNA level (TRBP mRNA; MCF-7/TR1 cells): not significantly changed
TRBP mRNA level (TRBP mRNA; MCF-7/TR cells pretreated with 2 μM tamoxifen for 48 hours): not significantly changed
p-AKT level after tamoxifen treatment (p-AKT): elevated-AKT level

4-hydroxytamoxifen
cytotoxic effects (MTT) [5]: noncytotoxic
